The nature of series [1]: Saturation solubility of aprepitant forms in water and aqueous HPβCD solutions. The conditions noted are these: water, thermodynamic from solid, 1A: pH 7.0. The format is physicochemical. On the procedure: Crystalline Form I of aprepitant, amorphous aprepitant, or aprepitant coprecipitate was added to water and to aqueous HPβCD solutions of different concentrations, with stirring until the saturation solubility was reached. […] 1B—pH adjusted to 1.2 using hydrochloric acid. 1C—pH adjusted to 11 with 0.3% sodium bicarbonate solution. Complexes with HPβCD are prepared by adding aprepitant to aqueous solutions of HPβCD and sonicating the solutions to dissolve aprepitant, until saturation is attained.

Series [2] in a line: Particle size analysis, Malvern Mastersizer. The format is physicochemical. From the text: The particle size distribution of a material is generally described in terms of D10, D50, D90, and D[4,3], used routinely to describe the particle sizes or size distributions. It is expressed as volume or weight or surface percentages. Dx as used herein is defined as the size of particles where x percent of the particles have sizes less than the value given. D[4,3] is the volume mean diameter of the particles. D90 for example means that 90% of the particles are below the specified particle size. Particle sizes or particle size distributions of the pharmaceutical compositions of aprepitant of the present invention are determined using any techniques that are known to the person skilled in the art including but not limited to sieve analysis, size analysis by laser light scattering such as using a Malvern particle size analyzer (Malvern Instruments Ltd., Malvern, Worcestershire, United Kingdom) and the like. Pharmaceutical compositions of aprepitant of the present invention are generally fine, uniform and free of agglomerates.
As used herein, the term “mean particle size” refers to the distributions of aprepitant particles, including aprepitant co-precipitate particles, wherein about 50 percent of all particles measured have a particle size less than the defined mean particle size value and about 50 percent of all measurable particles measured have a particle size greater than the defined mean particle size value; this can be identified by the term “D50.” Similarly, a particle size distribution where 90 percent of the particles have sizes less than a specified size is referred to as “D90” and a distribution where 10 percent of particles have sizes less than a specified size is referred to as “D10.”
Particle size analysis was carried out using a Malvern Mastersizer.

For series [3] the following is noted: cited from earlier work.

Each structure is given as a SMILES string. Converted amounts (≈) assume the structure as drawn.

The solubility is the dissolved amount per volume that the medium holds. The compound `C[C@@H](O[C@H]1OCCN(Cc2n[nH]c(=O)[nH]2)[C@H]1c1ccc(F)cc1)c1cc(C(F)(F)F)cc(C(F)(F)F)c1` [Crystalline aprepitant Form I] showed a solubility in series [1] of 0.5 µg/mL (≈ 0.936 µM). For the same compound, in series [2] (D10), the “Particle Size D10” value amounted to 17.1 μm. For the same compound, the “Particle Size D50” value in series [2] (D50) is 29.2 μm. The “Particle Size D90” value in series [2] (D90) worked out at 52.0 μm.

`C[C@@H](O[C@H]1OCCN(Cc2n[nH]c(=O)[nH]2)[C@H]1c1ccc(F)cc1)c1cc(C(F)(F)F)cc(C(F)(F)F)c1` [Aprepitant, 5-[[(2R,3S)-2-[(1R)-1-[3,5-bis(trifluoromethyl)phenyl]ethoxy]-3-(4-fluorophenyl)-4-morpholinyl]methyl]-1,2-dihydro-3H-1,2,4-triazol-3-one]: in series [3] (acetonitrile), the solubility in acetonitrile entry is given as “slightly soluble”. Besides, the solubility in ethanol result in series [3] (ethanol) is on record as “sparingly soluble”. Further, the “solubility in isopropyl alcohol” value in series [3] (isopropyl alcohol) is “sparingly soluble”. Further, in series [3] (water), the solubility in water entry was “practically insoluble”.

Source of the values: patent US20110009362A1, “SOLUBILITY-ENHANCED FORMS OF APREPITANT AND PHARMACEUTICAL COMPOSITIONS THEREOF” (DR. REDDY'S LABORATORIES LTD., priority 2008, published 2011).
